Patent US9315498B2, “Arlethynyl derivatives” (Hoffmann-La Roche Inc., priority 2010, dated 2016)

Molecular target: human mGlu5a receptor (Homo sapiens (Human), UniProt P41594)
Experiment: Intracellular Ca2+ mobilization assay (mGlu5 PAM)
Type: cell-based
Settings: for EC50: HEK-293 cells stably transfected with human mGlu5a, L-glutamate added at EC20 after pre-incubation with test compound, read-out: EC50 (nM) mGlu5PAM; for Emax: maximal response in % of the maximal stimulatory effect obtained with saturating concentrations of L-glutamate, read-out: Eff. (%)
Method: A monoclonal HEK-293 cell line stably transfected with a cDNA encoding for the human mGlu5a receptor was generated; for the work with mGlu5 Positive Allosteric Modulators (PAMs), a cell line with low receptor expression levels and low constitutive receptor activity was selected to allow the differentiation of agonistic versus PAM activity. Cells were cultured according to standard protocols (Freshney, 2000) in Dulbecco's Modified Eagle Medium with high glucose supplemented with 1 mM glutamine, 10% (vol/vol) heat-inactivated bovine calf serum, Penicillin/Streptomycin, 50 μg/ml hygromycin and 15 μg/ml blasticidin (all cell culture reagents and antibiotics from Invitrogen, Basel, Switzerland).
About 24 hrs before an experiment, 5×10^4 cells/well were seeded in poly-D-lysine coated, black/clear-bottomed 96-well plates. The cells were loaded with 2.5 μM Fluo-4AM in loading buffer (1×HBSS, 20 mM HEPES) for 1 hr at 37° C. and washed five times with loading buffer. The cells were transferred into a Functional Drug Screening System 7000 (Hamamatsu, Paris, France), and 11 half logarithmic serial dilutions of test compound at 37° C. were added and the cells were incubated for 10-30 min. with on-line recording of fluorescence. Following this pre-incubation step, the agonist L-glutamate was added to the cells at a concentration corresponding to EC20 (typically around 80 μM) with on-line recording of fluorescence; in order to account for day-to-day variations in the responsiveness of cells, the EC20 of glutamate was determined immediately ahead of each experiment by recording of a full dose-response curve of glutamate.
Responses were measured as peak increase in fluorescence minus basal (i.e. fluorescence without addition of L-glutamate), normalized to the maximal stimulatory effect obtained with saturating concentrations of L-glutamate. Graphs were plotted with the % maximal stimulatory using XLfit, a curve fitting program that iteratively plots the data using Levenburg Marquardt algorithm. The single site competition analysis equation used was y=A+((B−A)/(1+((x/C)D))), where y is the % maximal stimulatory effect, A is the minimum y, B is the maximum y, C is the EC50, x is the log10 of the concentration of the competing compound and D is the slope of the curve (the Hill Coefficient). From these curves the EC50 (concentration at which half maximal stimulation was achieved), the Hill coefficient as well as the maximal response in % of the maximal stimulatory effect obtained with saturating concentrations of L-glutamate were calculated.
A depression of the signal observed after addition of the EC20 concentration of L-glutamate was indicative of an inhibitory activity of the test compound.

Chain of human mGlu5a receptor (P41594 other isoform, or with tags, fused parts or gaps): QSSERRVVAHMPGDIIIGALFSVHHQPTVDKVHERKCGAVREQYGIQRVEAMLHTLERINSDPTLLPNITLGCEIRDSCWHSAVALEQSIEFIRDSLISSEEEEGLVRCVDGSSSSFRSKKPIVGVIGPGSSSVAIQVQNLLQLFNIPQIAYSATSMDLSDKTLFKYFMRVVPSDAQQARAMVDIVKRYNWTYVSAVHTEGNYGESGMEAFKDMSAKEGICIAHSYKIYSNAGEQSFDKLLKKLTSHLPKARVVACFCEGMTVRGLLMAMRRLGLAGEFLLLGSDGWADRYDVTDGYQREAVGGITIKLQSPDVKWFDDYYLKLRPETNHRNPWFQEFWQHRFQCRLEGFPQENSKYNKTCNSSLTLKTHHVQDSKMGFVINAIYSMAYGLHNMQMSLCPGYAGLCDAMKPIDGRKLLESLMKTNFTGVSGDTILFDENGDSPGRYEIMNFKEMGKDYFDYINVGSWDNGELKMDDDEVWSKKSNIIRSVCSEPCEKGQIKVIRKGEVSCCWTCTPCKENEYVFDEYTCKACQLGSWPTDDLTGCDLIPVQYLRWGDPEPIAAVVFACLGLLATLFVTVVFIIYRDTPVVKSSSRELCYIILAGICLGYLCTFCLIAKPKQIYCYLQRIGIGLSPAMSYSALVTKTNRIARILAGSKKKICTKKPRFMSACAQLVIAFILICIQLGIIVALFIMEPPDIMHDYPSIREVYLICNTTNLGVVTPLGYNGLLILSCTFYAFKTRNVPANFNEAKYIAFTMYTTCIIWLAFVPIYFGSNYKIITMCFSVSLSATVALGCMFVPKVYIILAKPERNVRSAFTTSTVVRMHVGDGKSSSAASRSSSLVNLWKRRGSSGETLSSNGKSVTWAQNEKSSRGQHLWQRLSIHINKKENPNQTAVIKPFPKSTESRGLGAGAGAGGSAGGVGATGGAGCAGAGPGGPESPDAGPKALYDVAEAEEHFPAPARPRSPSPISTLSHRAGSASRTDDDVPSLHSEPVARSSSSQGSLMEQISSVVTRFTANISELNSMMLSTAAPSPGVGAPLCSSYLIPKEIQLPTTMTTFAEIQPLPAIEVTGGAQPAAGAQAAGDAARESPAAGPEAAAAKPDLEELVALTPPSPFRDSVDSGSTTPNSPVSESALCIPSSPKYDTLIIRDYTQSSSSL

Structure (SMILES) | EC50 | Emax
COCC1CN(c2ccc(C#Cc3ccccc3)cn2)C(=O)O1 (racemic) [Example 2, (5RS)-5-Methoxymethyl-3-(5-phenylethynyl-pyridin-2-yl)-oxazolidin-2-one] | 47 nM | 34%
CC(C)(C)C1CN(c2ccc(C#Cc3ccccc3)cn2)C(=O)O1 (racemic) [Example 8, (5RS)-5-tert-Butyl-3-(5-phenylethynyl-pyridin-2-yl)-oxazolidin-2-one] | 17 nM | 62%
CC1(C)CN(c2ccc(C#Cc3ccccc3)cn2)C(=O)C1O (racemic) [Example 14, (3RS)-3-Hydroxy-4,4-dimethyl-1-(5-phenylethynyl-pyridin-2-yl)-pyrrolidin-2-one] | 388 nM | 114%
CC(C)(C)C1(C)CN(c2ccc(C#Cc3ccccc3)cn2)C(=O)O1 (racemic) [Example 19, (5RS)-5-tert-Butyl-5-methyl-3-(5-phenylethynyl-pyridin-2-yl)-oxazolidin-2-one] | 27 nM | 85%
O=C1O[C@H]2CCC[C@H]2N1c1ccc(C#Cc2ccccc2)cn1 (racemic) [Example 22, (3aRS,6aSR)-3-(5-Phenylethynyl-pyridin-2-yl)-hexahydro-cyclopentaoxazol-2-one] | 14 nM | 74%
O=C1O[C@H]2CCC[C@H]2N1c1ccc(C#Cc2cccnc2)cn1 (racemic) [Example 23, (3aRS,6aSR)-3-(5-Pyridin-3-ylethynyl-pyridin-2-yl)-hexahydro-cyclopentaoxazol-2-one] | 12 nM | 92%
O=C1O[C@H]2CCC[C@H]2N1c1ccc(C#Cc2cncc(F)c2)cn1 (racemic) [Example 24, (3aRS,6aSR)-3-[5-(5-Fluoro-pyridin-3-ylethynyl)-pyridin-2-yl]-hexahydro-cyclopentaoxazol-2-one] | 35 nM | 73%
CC1N(c2ccc(C#Cc3ccccc3)cn2)C(=O)OC1(C)C (racemic) [Example 27, (RS)-4,5,5-Trimethyl-3-(5-phenylethynyl-pyridin-2-yl)-oxazolidin-2-one] | 15 nM | 61%
CN1C(=O)N(c2ccc(C#Cc3ccccc3)cn2)CC1C1CCCC1 (racemic) [Example 45, (RS)-4-Cyclopentyl-3-methyl-1-(5-phenylethynyl-pyridin-2-yl)-imidazolidin-2-one] | 57 nM | 97%
O=C1[C@H]2CCC[C@H]2N1c1ccc(C#Cc2ccccc2)cn1 (racemic) [Example 46, (1RS,5SR)-6-(5-Phenylethynyl-pyridin-2-yl)-6-aza-bicyclo[3.2.0]heptan-7-one] | 26 nM | 27%
O=C1O[C@H]2CCCC[C@H]2N1c1ccc(C#Cc2ccccc2)cn1 (racemic) [Example 47, (6SR,7RS)-3-(5-Phenylethynyl-pyridin-2-yl)-hexahydro-benzooxazol-2-one] | 36 nM | 109%
O=C1N(c2ccc(C#Cc3ccccc3)cn2)CC2CCCCN12 (racemic) [Example 58, (RS)-2-(5-Phenylethynyl-pyridin-2-yl)-hexahydro-imidazo[1,5-a]pyridin-3-one] | 33 nM | 43%
COC1C(=O)N(c2ccc(C#Cc3ccccc3)cn2)CC1(C)C (racemic) [Example 60, (RS)-3-Methoxy-4,4-dimethyl-1-(5-phenylethynyl-pyridin-2-yl)-pyrrolidin-2-one] | 35 nM | 89%
COC1C(=O)N(c2ccc(C#Cc3cncc(Cl)c3)cn2)CC1(C)C (racemic) [Example 63, (RS)-1-[5-(5-Chloro-pyridin-3-ylethynyl)-pyridin-2-yl]-3-methoxy-4,4-dimethyl-pyrrolidin-2-one] | 70 nM | 99%
COC1C(=O)N(c2ccc(C#Cc3cccc(C)c3)cn2)CC1(C)C (racemic) [Example 64, (RS)-3-Methoxy-4,4-dimethyl-1-(5-m-tolylethynyl-pyridin-2-yl)-pyrrolidin-2-one] | 87 nM | 56%
COC1C(=O)N(c2ccc(C#Cc3cccc(F)c3)cn2)CC1(C)C (racemic) [Example 65, (RS)-1-[5-(3-Fluoro-phenylethynyl)-pyridin-2-yl]-3-methoxy-4,4-dimethyl-pyrrolidin-2-one] | 43 nM | 91%
COC1C(=O)N(c2ccc(C#Cc3ccc(F)cc3)cn2)CC1(C)C (racemic) [Example 66, (RS)-1-[5-(4-Fluoro-phenylethynyl)-pyridin-2-yl]-3-methoxy-4,4-dimethyl-pyrrolidin-2-one] | 75 nM | 87%
O=C1N(c2ccc(C#Cc3cccnc3)cn2)CC2CCCCN12 (racemic) [Example 70, (RS)-2-(5-Pyridin-3-ylethynyl-pyridin-2-yl)-hexahydro-imidazo[1,5-a]pyridin-3-one] | 74 nM | 51%
O=C1N(c2ccc(C#Cc3cccc(F)c3)cn2)CC2CCCCN12 (racemic) [Example 71, (RS)-2-[5-(3-Fluoro-phenylethynyl)-pyridin-2-yl]-hexahydro-imidazo[1,5-a]pyridin-3-one] | 17 nM | 41%
CN1C(=O)N(c2ccc(C#Cc3ccccc3)cn2)CC1C1CC1 (racemic) [Example 83, (RS)-4-Cyclopropyl-3-methyl-1-(5-phenylethynyl-pyridin-2-yl)-imidazolidin-2-one] | 53 nM | 86%
CC1(C)OC(=O)N(c2ccc(C#Cc3ccccc3)cn2)CC1O (racemic) [Example 95, (RS)-5-Hydroxy-6,6-dimethyl-3-(5-phenylethynyl-pyridin-2-yl)-[1,3]oxazinan-2-one] | 47 nM | 118%
O=C1[C@H]2CCC[C@H]2N1c1ccc(C#Cc2cccnc2)cn1 (racemic) [Example 98, (1RS,5SR)-6-(5-Pyridin-3-ylethynyl-pyridin-2-yl)-6-aza-bicyclo[3.2.0]heptan-7-one] | 39 nM | 73%
O=C1O[C@H]2CCC[C@@H]2CN1c1ccc(C#Cc2ccccc2)cn1 (racemic) [Example 102, (4aRS,7aSR)-3-(5-Phenylethynyl-pyridin-2-yl)-hexahydro-cyclopenta[e][1,3]oxazin-2-one] | 43 nM | 115%
CC1CN(c2ccc(C#Cc3ccccc3)cn2)C(=O)OC1(C)C (racemic) [Example 104, (RS)-5,6,6-Trimethyl-3-(5-phenylethynyl-pyridin-2-yl)-[1,3]oxazinan-2-one] | 42 nM | 109%
COCC1CCN(c2ccc(C#Cc3ccccc3)cn2)C(=O)O1 (racemic) [Example 105, (RS)-6-Methoxymethyl-3-(5-phenylethynyl-pyridin-2-yl)-[1,3]oxazinan-2-one] | 68 nM | 51%
CN1C(=O)N(c2ccc(C#Cc3ccccc3)cn2)[C@@H]2CCC[C@@H]21 (racemic) [Example 106, (3aRS, 6aSR)-1-methyl-3-(5-(phenylethynyl)pyridin-2-yl)hexahydrocyclopenta[d]imidazol-2(1H)-one] | 30 nM | 42%
CN1C(=O)N(c2ccc(C#Cc3ccccc3)cn2)CC1C(C)(C)C (racemic) [Example 107, (RS)-4-tert-Butyl-3-methyl-1-(5-phenylethynyl-pyridin-2-yl)-imidazolidin-2-one] | 59 nM | 106%
CN1C(=O)N(c2ccc(C#Cc3cccc(F)c3)cn2)[C@@H]2CCC[C@@H]21 (racemic) [Example 109, (3aSR,6aRS)-1-[5-(3-Fluoro-phenylethynyl)-pyridin-2-yl]-3-methyl-hexahydro-cyclopenta-imidazol-2-one] | 18 nM | 37%
COC1CN(c2ccc(C#Cc3ccccc3)cn2)C(=O)OC1(C)C (racemic) [Example 114, (RS)-5-Methoxy-6,6-dimethyl-3-(5-phenylethynyl-pyridin-2-yl)-[1,3]oxazinan-2-one] | 22 nM | 57%
COC1C(=O)N(c2ncc(C#Cc3ccccc3)cn2)CC1(C)C (racemic) [Example 127, (RS)-3-Methoxy-4,4-dimethyl-1-(5-phenylethynyl-pyrimidin-2-yl)-pyrrolidin-2-one] | 29 nM | 94%
